Laboratory results: publication PMC12226733, “Evolution of iGluR ligand specificity, polyamine regulation, and ion selectivity inferred from a placozoan epsilon receptor” (Communications Biology, 2025)
Where two headings read alike, the source gives them in different places.

Molecular target: T1, GluA2 Q607S (Homo sapiens, UniProt P42262, Q607S)
T1 construct: host or cells: HEK-293T/17
Assay type: cell-based
Settings: GluA2 Q-S; for normalized conductance (G-V, Figure 5g), Avg: Na vs Na; for I-V current, Na vs Na, Avg of recordings: Figure 5b

T1 sequence (P42262 25-883 Q607S): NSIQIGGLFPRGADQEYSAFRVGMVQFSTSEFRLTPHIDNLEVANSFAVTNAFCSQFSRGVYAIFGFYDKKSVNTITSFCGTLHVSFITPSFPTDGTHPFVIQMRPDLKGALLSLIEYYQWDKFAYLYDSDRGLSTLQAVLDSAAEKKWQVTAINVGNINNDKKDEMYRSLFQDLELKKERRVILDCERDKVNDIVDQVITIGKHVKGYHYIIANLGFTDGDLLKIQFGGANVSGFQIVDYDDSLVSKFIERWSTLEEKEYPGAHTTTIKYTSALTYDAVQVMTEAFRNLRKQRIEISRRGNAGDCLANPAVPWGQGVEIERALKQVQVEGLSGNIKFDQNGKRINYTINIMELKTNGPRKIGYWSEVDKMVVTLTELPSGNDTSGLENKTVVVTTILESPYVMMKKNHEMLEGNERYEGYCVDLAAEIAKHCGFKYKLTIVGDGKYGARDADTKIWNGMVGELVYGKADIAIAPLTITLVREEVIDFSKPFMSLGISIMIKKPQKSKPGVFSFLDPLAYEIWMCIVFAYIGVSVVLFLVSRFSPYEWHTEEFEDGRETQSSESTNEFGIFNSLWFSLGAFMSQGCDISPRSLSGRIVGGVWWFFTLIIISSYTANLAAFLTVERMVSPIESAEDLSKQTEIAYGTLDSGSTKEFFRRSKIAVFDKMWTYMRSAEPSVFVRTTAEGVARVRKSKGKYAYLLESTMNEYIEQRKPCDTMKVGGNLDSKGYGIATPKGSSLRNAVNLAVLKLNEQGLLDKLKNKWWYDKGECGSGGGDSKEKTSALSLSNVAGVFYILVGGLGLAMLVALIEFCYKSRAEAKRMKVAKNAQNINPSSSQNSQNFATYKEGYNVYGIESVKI

How did the “normalized conductance (G-V, Figure 5g), Avg” value (from here on “normalized conductance”) (Vm 0.00) turn out when `[Na+]` [Na] was run?
The value was 0.29.

And the “normalized conductance” value (Vm 20.00)?
Its value is 0.39.

And the “normalized conductance” value (Vm 40.00)?
Its value is 0.47.

And the “normalized conductance” value (Vm 60.00)?
The value was 0.53.

And the “normalized conductance” value (Vm 80.00)?
The value was 0.52.

What about the “normalized conductance” value (Vm -20.00) of the same compound?
Its value is 0.28.

And the “normalized conductance” value (Vm -40.00)?
The value was 0.39.

And the “normalized conductance” value (Vm -60.00)?
Its value is 0.63.

And the “normalized conductance” value (Vm -80.00)?
The value was 1.00.

And the “I-V current, Na vs Na, Avg of recordings” value (Vm 0.00)?
Its value is -0.0234.

What about the “I-V current, Na vs Na, Avg of recordings” value (Vm 20.00) of the same compound?
Its value is 0.09.

What about the “I-V current, Na vs Na, Avg of recordings” value (Vm 40.00) of the same compound?
The value was 0.23.

And the “I-V current, Na vs Na, Avg of recordings” value (Vm 60.00)?
Its value is 0.41.

What about the “I-V current, Na vs Na, Avg of recordings” value (Vm 80.00) of the same compound?
The value was 0.57.

And the “I-V current, Na vs Na, Avg of recordings” value (Vm -20.00)?
Its value is -0.10.

And the “I-V current, Na vs Na, Avg of recordings” value (Vm -40.00)?
Its value is -0.20.

What about the “I-V current, Na vs Na, Avg of recordings” value (Vm -60.00) of the same compound?
The value was -0.35.

And the “I-V current, Na vs Na, Avg of recordings” value (Vm -80.00)?
The value was -0.61.
